In ChEMBL document CHEMBL1201862, “PubChem BioAssay data set” (2004):
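48-hour exposure; five concentrations; linearly interpolated endpoints. GI50: concentration for 50% inhibition of growth.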 Calls of active or inactive are those of the source. No stated cut-off is given here; in the data, active = GI50 up to about 1.1 µM and inactive = higher.

Experiments:
Experiment in all cases: inhibition of tumour cell growth, NCI panel, 48 h
A498 = system: A498
A549 = system: A549
ACHN = system: ACHN
COLO 205 = system: COLO 205
DU-145 = system: DU-145
HCT-15 = system: HCT-15
HOP-62 = system: HOP-62
HT-29 = system: HT-29
KM12 = system: KM12
M14 = system: M14
MCF7 = system: MCF7
MDA-MB-435 = system: MDA-MB-435
NCI-H522 = system: NCI-H522
NCI/ADR-RES = system: NCI/ADR-RES
OVCAR-8 = system: OVCAR-8
RXF 393 = system: RXF 393
SK-MEL-2 = system: SK-MEL-2
SN12C = system: SN12C
IGROV-1 = system: IGROV-1

Compound	GI50 (A498)	GI50 (A549)	GI50 (ACHN)	GI50 (COLO 205)	GI50 (DU-145)	GI50 (HCT-15) [µM]	GI50 (HOP-62)	GI50 (HT-29)	GI50 (KM12)	GI50 (M14)	GI50 (MCF7)	GI50 (MDA-MB-435)	GI50 (NCI-H522)	GI50 (NCI/ADR-RES)	GI50 (OVCAR-8)	GI50 (RXF 393)	GI50 (SK-MEL-2)	GI50 (SN12C)	GI50 (IGROV-1)
c1ccc(CSc2nnc3c4ccccc4c4ccccc4c3n2)cc1	> 64.1 µM (inactive)	> 89.3 µM (inactive)	61 µM (inactive)	> 100 µM (inactive)	> 82.2 µM (inactive)	> 100	24.8 µM (inactive)	> 100 µM (inactive)	> 100 µM (inactive)	> 100 µM (inactive)	29.1 µM (inactive)	58.1 µM (inactive)	33.2 µM (inactive)	60.5 µM (inactive)	35.5 µM (inactive)	> 52.1 µM (inactive)	36.6 µM (inactive)	> 93.8 µM (inactive)	–
CN(C)CCn1c(=O)c2ccc3c4c(nn3CCN(C)C)c3ccccc3n(c1=O)c24	0.301 µM (active)	0.134 µM (active)	< 0.129 µM (active)	0.201 µM (active)	0.208 µM (active)	< 0.125	0.164 µM (active)	< 0.123 µM (active)	0.205 µM (active)	0.411 µM (active)	0.188 µM (active)	0.23 µM (active)	< 0.0219 µM (active)	0.368 µM (active)	< 0.01 µM (active)	0.275 µM (active)	0.423 µM (active)	0.148 µM (active)	–
Cc1cc2c(=Cc3ccc(N(C)C)cc3)c3ccccc3n2[n+]1C	1.87 µM (inactive)	0.632 µM (active)	2.23 µM (inactive)	0.164 µM (active)	0.713 µM (active)	12.3	0.656 µM (active)	0.675 µM (active)	0.385 µM (active)	1.05 µM (active)	0.396 µM (active)	0.424 µM (active)	0.335 µM (active)	> 66.4 µM (inactive)	0.313 µM (active)	2.09 µM (inactive)	0.652 µM (active)	0.304 µM (active)	1.52 µM (inactive)
O=C(CCc1ccc(O)c(O)c1)NCCc1cc(O)cc(O)c1	> 100 µM (inactive)	> 100 µM (inactive)	> 100 µM (inactive)	> 100 µM (inactive)	> 100 µM (inactive)	> 100	> 100 µM (inactive)	> 100 µM (inactive)	> 100 µM (inactive)	> 100 µM (inactive)	66.8 µM (inactive)	24.8 µM (inactive)	71 µM (inactive)	> 100 µM (inactive)	> 100 µM (inactive)	> 100 µM (inactive)	> 100 µM (inactive)	> 100 µM (inactive)	> 100 µM (inactive)
Cc1cc(C)c2c(c1)CC1(Cc3c(C)cc(C)cc3C1=O)C2=O (stereo unspecified)	> 100 µM (inactive)	98.6 µM (inactive)	> 100 µM (inactive)	> 100 µM (inactive)	> 100 µM (inactive)	> 100	–	–	> 100 µM (inactive)	> 100 µM (inactive)	> 100 µM (inactive)	> 100 µM (inactive)	> 100 µM (inactive)	> 100 µM (inactive)	> 100 µM (inactive)	> 100 µM (inactive)	> 100 µM (inactive)	> 100 µM (inactive)	84.5 µM (inactive)
O=c1c2c3c(sc2nc2n1sc1nc4sc5c(c4c(=O)n12)CCCC5)CCCC3	> 100 µM (inactive)	> 77.1 µM (inactive)	61.5 µM (inactive)	26.6 µM (inactive)	> 44.8 µM (inactive)	62.8	> 100 µM (inactive)	41.2 µM (inactive)	> 89.7 µM (inactive)	98.2 µM (inactive)	23.8 µM (inactive)	51.8 µM (inactive)	10.8 µM (inactive)	32.1 µM (inactive)	56.6 µM (inactive)	21 µM (inactive)	> 100 µM (inactive)	> 87.1 µM (inactive)	> 100 µM (inactive)
CCOP(=O)(OCC)/C(F)=C/c1ccccc1	> 100 µM (inactive)	> 100 µM (inactive)	> 100 µM (inactive)	> 100 µM (inactive)	> 100 µM (inactive)	> 100	> 100 µM (inactive)	> 100 µM (inactive)	> 100 µM (inactive)	> 100 µM (inactive)	> 100 µM (inactive)	> 100 µM (inactive)	> 100 µM (inactive)	> 100 µM (inactive)	> 100 µM (inactive)	> 100 µM (inactive)	> 100 µM (inactive)	> 100 µM (inactive)	> 100 µM (inactive)
Clc1ccc(Nc2nn3c(CCCCCCCCc4nnc5sc(Nc6ccc(Cl)cc6)nn45)nnc3s2)cc1	> 100 µM (inactive)	> 100 µM (inactive)	> 100 µM (inactive)	> 100 µM (inactive)	> 100 µM (inactive)	> 100	38.3 µM (inactive)	49.3 µM (inactive)	> 100 µM (inactive)	> 100 µM (inactive)	> 100 µM (inactive)	> 100 µM (inactive)	> 100 µM (inactive)	> 100 µM (inactive)	> 100 µM (inactive)	> 100 µM (inactive)	> 100 µM (inactive)	> 100 µM (inactive)	–
Cc1cc(S(=O)(=O)NC(=C(C#N)C#N)[n+]2ccc(N(C)C)cc2)c([S-])cc1Cl	> 100 µM (inactive)	> 100 µM (inactive)	> 100 µM (inactive)	> 100 µM (inactive)	> 100 µM (inactive)	> 100	> 100 µM (inactive)	> 100 µM (inactive)	> 100 µM (inactive)	> 100 µM (inactive)	> 100 µM (inactive)	> 100 µM (inactive)	42.3 µM (inactive)	> 100 µM (inactive)	> 100 µM (inactive)	> 100 µM (inactive)	> 100 µM (inactive)	> 100 µM (inactive)	> 100 µM (inactive)
Cc1nc(-c2ccc(Cl)cc2)cn2c1nc1ccccc12	> 100 µM (inactive)	> 100 µM (inactive)	> 100 µM (inactive)	> 43.3 µM (inactive)	> 100 µM (inactive)	19.4	> 100 µM (inactive)	99.1 µM (inactive)	> 82.6 µM (inactive)	> 72.3 µM (inactive)	0.647 µM (active)	> 100 µM (inactive)	> 100 µM (inactive)	> 86.3 µM (inactive)	> 100 µM (inactive)	> 100 µM (inactive)	> 100 µM (inactive)	> 100 µM (inactive)	11.1 µM (inactive)
COc1cc(C2c3cc4c(cc3OC(N3CCOCC3)C2C)OCO4)cc(OC)c1O (stereo unspecified)	15.1 µM (inactive)	8.91 µM (inactive)	12.2 µM (inactive)	15.6 µM (inactive)	29.7 µM (inactive)	2.87	9.57 µM (inactive)	4.04 µM (inactive)	4.73 µM (inactive)	7.29 µM (inactive)	5.35 µM (inactive)	2.1 µM (inactive)	2.8 µM (inactive)	3.35 µM (inactive)	14.2 µM (inactive)	14.7 µM (inactive)	6.9 µM (inactive)	13.7 µM (inactive)	7.6 µM (inactive)
CCOc1cc(-c2nc3ccccn3c2/N=C/c2cc(Br)ccc2O)ccc1O	31.6 µM (inactive)	37.9 µM (inactive)	47.5 µM (inactive)	> 100 µM (inactive)	12.5 µM (inactive)	8.51	20.3 µM (inactive)	42.1 µM (inactive)	–	36.1 µM (inactive)	13.9 µM (inactive)	66.8 µM (inactive)	35.9 µM (inactive)	27.7 µM (inactive)	21.2 µM (inactive)	16 µM (inactive)	46.1 µM (inactive)	31.3 µM (inactive)	20.6 µM (inactive)
CCN1CCN(c2nc3ccc([N+](=O)[O-])cc3nc2C(=O)c2ccccc2)CC1	30.4 µM (inactive)	17.6 µM (inactive)	15.8 µM (inactive)	16.2 µM (inactive)	18.8 µM (inactive)	12	20.1 µM (inactive)	–	16.8 µM (inactive)	12.4 µM (inactive)	18.3 µM (inactive)	16.3 µM (inactive)	2.67 µM (inactive)	14.8 µM (inactive)	16.8 µM (inactive)	16.7 µM (inactive)	15.8 µM (inactive)	16.3 µM (inactive)	5.78 µM (inactive)
Cc1cc2c(cc1C)OC(=O)CC2	> 100 µM (inactive)	> 100 µM (inactive)	> 100 µM (inactive)	> 100 µM (inactive)	> 100 µM (inactive)	–	> 100 µM (inactive)	> 100 µM (inactive)	> 100 µM (inactive)	> 100 µM (inactive)	> 100 µM (inactive)	> 100 µM (inactive)	> 100 µM (inactive)	> 100 µM (inactive)	> 100 µM (inactive)	> 100 µM (inactive)	> 100 µM (inactive)	> 100 µM (inactive)	> 100 µM (inactive)
COc1ccc(C2(c3ccc(OC)cc3)OC(=O)c3cccc4cccc2c34)cc1	> 100 µM (inactive)	8.11 µM (inactive)	7.93 µM (inactive)	2.81 µM (inactive)	> 100 µM (inactive)	4.15	6.98 µM (inactive)	2.4 µM (inactive)	3.85 µM (inactive)	3.78 µM (inactive)	4.78 µM (inactive)	2.69 µM (inactive)	–	2.72 µM (inactive)	15.7 µM (inactive)	15.9 µM (inactive)	8 µM (inactive)	23.8 µM (inactive)	5.93 µM (inactive)
